Reference: patent US8476043B2, “Inhibitors for the soluble epoxide hydrolase” (The Regents of the University of California, priority 2004, dated 2013)

Biological target: T1, human sEH (Homo sapiens, UniProt P34913)
T1 construct: made in house
T1 sequence (P34913 1-555): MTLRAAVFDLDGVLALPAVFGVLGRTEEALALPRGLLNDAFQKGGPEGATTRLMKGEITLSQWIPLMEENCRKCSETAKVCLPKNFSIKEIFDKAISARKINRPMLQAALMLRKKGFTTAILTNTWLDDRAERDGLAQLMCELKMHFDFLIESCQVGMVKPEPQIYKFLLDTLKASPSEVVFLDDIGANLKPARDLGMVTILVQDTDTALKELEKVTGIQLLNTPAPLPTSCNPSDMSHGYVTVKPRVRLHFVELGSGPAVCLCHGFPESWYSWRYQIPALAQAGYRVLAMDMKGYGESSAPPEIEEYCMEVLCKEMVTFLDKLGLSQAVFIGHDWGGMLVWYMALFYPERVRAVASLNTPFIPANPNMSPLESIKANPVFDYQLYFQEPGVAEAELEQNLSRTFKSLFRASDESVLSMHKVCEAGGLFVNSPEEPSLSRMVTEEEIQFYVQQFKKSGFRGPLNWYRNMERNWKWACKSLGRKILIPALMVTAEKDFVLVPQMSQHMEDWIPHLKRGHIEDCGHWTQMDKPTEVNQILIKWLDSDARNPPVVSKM
Assay: sEH inhibition, fluorescent assay with cyano(6-methoxy-naphthalen-2-yl)methyl trans-[(3-phenyloxiran-2-yl)methyl]carbonate as substrate
Assay type: biochemical
Details: not given
Procedure: Recombinant mouse sEH and human sEH were produced in a baculovirus expression system and purified by affinity chromatography. […] Protein concentration was quantified by using the Pierce BCA assay using Fraction V bovine serum albumin as the calibrating standard.
Enzyme activity was measured by monitoring the appearance of 6-methoxy-2-naphthaldehyde. Assays were performed in triplicate. […] IC50 values were determined by regression of at least five datum points, with a minimum of two datum points in the linear region of the curve on either side of the IC50 values. The curve was generated from at least three separate runs, each in triplicate.

| Compound | IC50 [nM] |
| --- | --- |
| O=C(NC1CCC(OC2CCCCC2)CC1)NC12CC3CC(CC(C3)C1)C2 (centres unmarked) [Compound 1097] | 10 ± 10 |

Same assay, conditions: Table 18b; fluorescent assay with cyano(6-methoxy-naphthalen-2-yl)methyl trans-[(3-phenyloxiran-2-yl)methyl]carbonate as substrate; mean ± SD; read-out: IC50

| Compound | IC50 [nM] |
| --- | --- |
| O=C(Cc1ccc(NC(=O)NC23CC4CC(CC(C4)C2)C3)cc1)NC(C(=O)NCC(C(=O)O)c1c[nH]c2ccccc12)c1ccccc1 (centres unmarked) [Compound 1425] | 10 ± 10 |
| O=C(NC1CCC(OC(=O)c2ccccc2)CC1)NC12CC3CC(CC(C3)C1)C2 (centres unmarked) [Compound 1074] | 10 ± 10 |
| CCOC(=O)C(C)Oc1ccc(NC(=O)NC23CC4CC(CC(C4)C2)C3)cc1 (centres unmarked) [Compound 1186] | 10 ± 10 |
| O=C(Nc1cccc(C(=O)NCCN2CCOCC2)c1)NC12CC3CC(CC(C3)C1)C2 [Compound 1165] | 60 ± 10 |
| CCOC(=O)C(F)(F)Oc1ccc(NC(=O)NC23CC4CC(CC(C4)C2)C3)cc1 [Compound 1443] | 10 ± 10 |
| O=C(NC1CCCC(C(=O)OC(c2ccccc2)c2ccccc2)C1)NC12CC3CC(CC(C3)C1)C2 (centres unmarked) [Compound 1437] | 10 ± 10 |
| CC(=O)c1ccc(NC(=O)NC23CC4CC(CC(C4)C2)C3)cc1 [Compound 1217] | 10 ± 10 |
| O=C(Nc1ccc(C(=O)c2ccccc2)cc1)NC12CC3CC(CC(C3)C1)C2 [Compound 1219] | 10 ± 10 |
| O=C(O)COc1ccc(NC(=O)NC23CC4CC(CC(C4)C2)C3)cc1 [Compound 1185] | 140 ± 10 |
| O=C(CCCCCCOCCCCc1ccccc1)NC12CC3CC(CC(C3)C1)C2 [Compound 1028] | 10 ± 10 |
| O=C(NC1CCC(OCc2ccccc2F)CC1)NC12CC3CC(CC(C3)C1)C2 (centres unmarked) [Compound 1150] | 10 ± 10 |
| O=C(Nc1cccc(OC(=O)c2ccccc2)c1)NC12CC3CC(CC(C3)C1)C2 [Compound 1222] | 10 ± 10 |
| O=C(CC12CC3CC(CC(C3)C1)C2)Nc1ccc(O)cc1 [Compound 1454] | 30 ± 10 |
| O=C(O)CCCCCCCNC(=O)NC12CC3CC(CC(C3)C1)C2 [Compound 1214] | 10 ± 10 |
| O=C(NC1CCCCCC1)NC1CCC(Oc2ccc(F)cc2)CC1 (centres unmarked) [Compound 1515] | 10 ± 10 |
| O=C(CC12CC3CC(CC(C3)C1)C2)NC1CCC(O)CC1 (centres unmarked) [Compound 1063-1] | 50 ± 10 |
| O=C(CC12CC3CC(CC(C3)C1)C2)NCCCCCOCCOCCOCc1ccccc1 [Compound 1063-2] | 10 ± 10 |
| O=C(NC1CCCC(C(=O)NCCOCCO)C1)NC12CC3CC(CC(C3)C1)C2 (centres unmarked) [Compound 1022] | 40 ± 10 |
| O=C(NCCCCCOCCN1CCOCC1)NC12CC3CC(CC(C3)C1)C2 [Compound 1196] | 10 ± 10 |
| O=C(Nc1ccccc1)NC1CCC(OCc2c(F)cccc2F)CC1 (centres unmarked) [Compound 1148] | 10 ± 10 |
| CCOCCOCCOCCCCCNC(=O)NC1C2CC3CC(C2)CC1C3 (centres unmarked) [Compound 1128] | 10 ± 10 |
| O=C(NC1CCC(OCc2ccccc2C(F)(F)F)CC1)NC12CC3CC(CC(C3)C1)C2 (centres unmarked) [Compound 1143] | 10 ± 10 |
| O=C(Nc1cccc(Oc2ccccc2)c1)NC12CC3CC(CC(C3)C1)C2 [Compound 1195] | 10 ± 10 |
| CC(C)(Oc1ccc(NC(=O)NC23CC4CC(CC(C4)C2)C3)cc1)C(=O)OCc1ccccc1 [Compound 1441] | 10 ± 10 |
| O=C(CCCCCCOCCCCCCc1ccccc1)NC12CC3CC(CC(C3)C1)C2 [Compound 1125] | 10 ± 10 |

| Compound | IC50 [nM] |
| --- | --- |
| O=C(CCCCCCOCCCOCCCc1ccccc1)NC12CC3CC(CC(C3)C1)C2 [Compound 1023] | 70 ± 10 |
| O=C(NCCCCCOCCCCCN1CCS(=O)(=O)CC1)NC12CC3CC(CC(C3)C1)C2 [Compound 1031] | 10 ± 10 |
| O=C(NC1CCC(C(=O)O)CC1)NC12CC3CC(CC(C3)C1)C2 (centres unmarked) [Compound 1173] | 10 ± 10 |
| CCOCCOCCOCCOC(=O)CCCCCCCCCCCNC(=O)NC12CC3CC(CC(C3)C1)C2 [Compound 1067] | 10 ± 10 |
| CCCCCOC(=O)CCCNC(=O)C12CC3CC(CC(C3)C1)C2 [Compound 1068] | 390 ± 10 |
| O=C(NC1CCCCC1)Oc1cccc(-c2ccccc2)c1 [Compound 1229] | 920 ± 10 |
| CCOC(=O)COc1ccc(NC(=O)NC23CC4CC(CC(C4)C2)C3)cc1 [Compound 1184] | 10 ± 10 |
| COCCCCCCCCNC(=O)NC12CC3CC(CC(C3)C1)C2 [Compound 1450] | 10 ± 10 |
| O=C(NCCOCc1ccc2ccccc2c1)NCCOCc1ccc2ccccc2c1 [Compound 1117] | 1120 ± 10 |
| CCOC(=O)c1ccc(C(OC(=O)C2CCCC(NC(=O)NC34CC5CC(CC(C5)C3)C4)C2)c2ccccc2)cc1 (centres unmarked) [Compound 1066] | 10 ± 10 |
| O=C(Nc1ccc(OCCN2CCOCC2)c(Cl)c1)NC12CC3CC(CC(C3)C1)C2 [Compound 1447] | 10 ± 10 |
| O=C(NC12CC3CC(CC(C3)C1)C2)N[C@H]1CC[C@H](OC(=O)c2ccc([N+](=O)[O-])cc2)CC1 (relative stereo) [Compound 1076, trans-4-Nitro-benzoic acid 4-(3-tricyclo[3.3.1.13,7]decan-1-yl-ureido)-cyclohexyl ester] | 10 ± 10 |
| O=C(Nc1ccc(C(=O)O)cc1)NC12CC3CC(CC(C3)C1)C2 [Compound 1177] | 10 ± 10 |
| CCC(=O)Oc1ccc(NC(=O)NC23CC4CC(CC(C4)C2)C3)cc1 [Compound 1221] | 10 ± 10 |
| Cc1c(COC(=O)NC2CCCCC2)cccc1-c1ccccc1 [Compound 1230] | 660 ± 10 |
| O=C(NCCCCCCCCO)NC12CC3CC(CC(C3)C1)C2 [Compound 1449] | 10 ± 10 |
| CC(=O)Oc1cccc(NC(=O)NC23CC4CC(CC(C4)C2)C3)c1 [Compound 1193] | 10 ± 10 |
| O=C(Nc1ccc(Cl)cc1)NC1CCC(Oc2ccc(F)cc2)CC1 (centres unmarked) [Compound 1514] | 10 ± 10 |
| O=C(Nc1cccc(C(=O)OC(c2ccccc2)c2ccccc2)c1)NC12CC3CC(CC(C3)C1)C2 [Compound 1182] | 10 ± 10 |
| Cc1c(COC(=O)N(C(C)C)C(C)C)cccc1-c1ccccc1 [Compound 1465] | 1230 ± 10 |
| CCOCCOCCOCCCCCNC(=O)NC1C2CC3CC(C2)CC1C3 (centres unmarked) [Compound 1172] | 10 ± 10 |
| O=C(O)Cc1cccc(NC(=O)NC23CC4CC(CC(C4)C2)C3)c1 [Compound 1225] | 20 ± 10 |
| O=C(CC12CC3CC(CC(C3)C1)C2)Nc1cccc(C(=O)O)c1 [Compound 1453] | 30 ± 10 |
| COc1ccc(NC(=O)NC23CC4CC(CC(C4)C2)C3)cc1O [Compound 1191] | 10 ± 10 |
| CCOCCOCCOCCCCCCNC(=O)NC12CC3CC(CC(C3)C1)C2 [Compound 1130] | 10 ± 10 |

| Compound | IC50 [nM] |
| --- | --- |
| O=C(Nc1ccc(OCCN2CCOCC2)cc1Cl)NC12CC3CC(CC(C3)C1)C2 [Compound 1448] | 10 ± 10 |
| O=C(Nc1cc(O)ccc1Cl)NC12CC3CC(CC(C3)C1)C2 [Compound 1189] | 20 ± 10 |
| CCCCCNC(=O)NCCOCc1ccc2ccccc2c1 [Compound 1116] | 260 ± 10 |
| CC(=O)Oc1ccc(NC(=O)NC23CC4CC(CC(C4)C2)C3)cc1 [Compound 1220] | 10 ± 10 |
| O=C(O)CCc1cccc(NC(=O)NC23CC4CC(CC(C4)C2)C3)c1 [Compound 1226] | 10 ± 10 |
| O=C(CC12CC3CC(CC(C3)C1)C2)NC12CC3CC(CC(O)(C3)C1)C2 [Compound 1064] | 40 ± 10 |
| CC(C)N(C(=O)Oc1cccc(-c2ccccc2)c1)C(C)C [Compound 1460] | 10920 ± 10 |
| COCOc1cc(F)c(COC2CCC(NC(=O)NC34CC5CC(CC(C5)C3)C4)CC2)c(F)c1 (centres unmarked) [Compound 1105] | 10 ± 10 |
| O=C(O)CCCCCNC(=O)NC12CC3CC(CC(C3)C1)C2 [Compound 1213] | 170 ± 10 |
| CC(=O)c1cccc(NC(=O)NC23CC4CC(CC(C4)C2)C3)c1 [Compound 1192] | 10 ± 10 |
| COCOc1cc(F)c(COC2CCC(NC(=O)NC34CC5CC(CC(C5)C3)C4)CC2)c(F)c1 (centres unmarked) [Compound 1106] | 10 ± 10 |
| O=C(Nc1cccc(C(=O)Nc2ccc(N3CCOCC3)cc2)c1)NC12CC3CC(CC(C3)C1)C2 [Compound 1440] | 70 ± 10 |
| O=C(Nc1ccc(I)cc1)NC1CCC(Oc2ccc(F)cc2)CC1 (centres unmarked) [Compound 1518] | 10 ± 10 |
| O=C(NC1CCC(OCc2ccccc2OC(F)(F)F)CC1)NC12CC3CC(CC(C3)C1)C2 (centres unmarked) [Compound 1144] | 10 ± 10 |
| CC(C)N(C(=O)Oc1cccc(-c2ccccc2)c1)C(C)C [Compound 1463] | 11890 ± 10 |
| CCN(CC)C(=O)OCc1cccc(-c2ccccc2)c1C [Compound 1464] | 7190 ± 10 |
| COCC(=O)c1ccc(OC2CCC(NC(=O)NC34CC5CC(CC(C5)C3)C4)CC2)cc1 (centres unmarked) [Compound 1469] | 10 ± 10 |
| O=C(Nc1ccc(Br)cc1)NC1CCC(Oc2ccc(F)cc2)CC1 (centres unmarked) [Compound 1516] | 10 ± 10 |
| O=C(Nc1cccc(C(=O)c2ccccc2)c1)NC12CC3CC(CC(C3)C1)C2 [Compound 1218] | 10 ± 10 |
| O=C(Nc1ccc(OC(F)(F)C(=O)O)cc1)NC12CC3CC(CC(C3)C1)C2 [Compound 1444] | 10 ± 10 |
| O=C(Nc1ccccc1)NC1CCC(OCc2c(F)cccc2F)CC1 (centres unmarked) [Compound 1147] | 10 ± 10 |
| O=C(CCCCCCOCCCc1ccccc1)NC12CC3CC(CC(C3)C1)C2 [Compound 1027] | 20 ± 10 |
| CCC(=O)Oc1cccc(NC(=O)NC23CC4CC(CC(C4)C2)C3)c1 [Compound 1194] | 10 ± 10 |
